Patent US20180066241A1, “PRO-APOPTOTIC SET AND PP2A PEPTIDES” (Universite Pierre Et Marie Curie (Paris 6), priority 2015, published 2018)

Legend:
[1] = test system: H1299 cell line; assay: Detection of apoptosis by Annexin-V-FITC staining, H1299; format: cell-based, Human; settings: H1299 cells, peptide 100 μM for 24 h, compared to control non treated cells
Protocol: (§1) H1975 and H1299 cell lines were cultured in the presence or in the absence (control) of the Mut3DPT-PP2Ac peptide at a concentration of 100 μM for 24 h. Apoptosis was detected by Annexin V-FITC staining and analyzed by flow cytometry. Mut3-DPT-PP2A is VKKKKIKAEIKI-ETVTLLVALKVRYRERIT (SEQ ID NO: 32).
(§2) Human non small cell lung carcinoma cell lines H1975 and H1299, as well as breast cancer cell line MDA-MB231 were cultured in DMEM (Gibco Life technologies) medium supplemented with 10% FCS.
(§3) Apopotic cells were detected using Annexin-V (-FITC from BD biosciences) as described by the manufacturer. Briefly, the cells were washed in lx binding buffer, centrifugated and then resuspended in 200 μL of 1× binding buffer containing Annexin V-FITC and propidium iodide (PI). After incubation at room temperature in the dark for 10 min, cells were analyzed with FACS Calibur cytofluometer (BD Biosciences).
(§4) The effect of peptides treatment was compared to untreated cells. The peptides were used at 100 μM for 24 h.

[2] = test system: Raji cell line; assay: Detection of apoptosis by Annexin-V-FITC staining, Raji; format: cell-based, Human; settings: Raji cells, peptide 100 μM for 24 h, compared to control non treated cells
Protocol: as §1, with “Daudi, Raji” for “H1975”, “Jok 1” for “H1299”, “Mut3DPT-PP2A” for “Mut3DPT-PP2Ac”
(§5) Human B lymphoblast Daudi cell line, human lymphoblast-like Raji cell line and a Hairy cell leukemia-derived cell line Jok1 were cultured in DMEM (Gibco Life technologies) medium supplemented with 10% FCS.
(§6) Apopotic cells were detected using Annexin-V (-FITC from BD biosciences) as described above.
(§7) The effect of Mut3DPT-PP2Ac peptide treatment was compared to untreated cells. The peptides were used at 100 μM for 24 h.

[3] = test system: Jok1 cell line; assay: Detection of apoptosis by Annexin-V-FITC staining, Jok1; format: cell-based, Human; settings: Jok1 cells, peptide 100 μM for 24 h, compared to control non treated cells
Protocol: as §1, with “Daudi, Raji” for “H1975”, “Jok 1” for “H1299”, “Mut3DPT-PP2A” for “Mut3DPT-PP2Ac”
as §5, §6, §7

[4] = test system: H1975 cell line; assay: Detection of apoptosis by Annexin-V-FITC staining, H1975; format: cell-based, Human; settings: H1975 cells, peptide 100 μM for 24 h, compared to control non treated cells
Protocol: as §1, §2, §3, §4

[5] = test system: Daudi cell line; assay: Detection of apoptosis by Annexin-V-FITC staining, Daudi; format: cell-based, Human; settings: Daudi cells, peptide 100 μM for 24 h, compared to control non treated cells
Protocol: as §1, with “Daudi, Raji” for “H1975”, “Jok 1” for “H1299”, “Mut3DPT-PP2A” for “Mut3DPT-PP2Ac”
as §5, §6, §7

[6] = test system: MDA-MB231 cell line; assay: Detection of apoptosis by Annexin-V-FITC staining, MDA-MB231; format: cell-based, Human; settings: MDA-MB231 cells, peptide 100 μM for 24 h, compared to control non treated cells
Protocol: MDA-MB231 cell line was cultured in the presence or in the absence (control) of the Mut3DPT-SET peptide at a concentration of 100 μM for 24 h. Apoptosis was detected by Annexin V-FITC staining and analyzed by flow cytometry. Mut3-DPT-SET is VKKKKIKAEIKI-[…] (SEQ ID NO: 33).
as §2, §3, §4

[7] = target: SET protein (Homo sapiens, UniProt Q01105); assay: Binding assay on cellulose-bound overlapping PP2Ac peptides incubated with SET protein; settings: four overlapping dodecapeptides, anti-SET antibody, ECL detection
Chain of SET protein (Q01105 1-277 isoform Q01105-2): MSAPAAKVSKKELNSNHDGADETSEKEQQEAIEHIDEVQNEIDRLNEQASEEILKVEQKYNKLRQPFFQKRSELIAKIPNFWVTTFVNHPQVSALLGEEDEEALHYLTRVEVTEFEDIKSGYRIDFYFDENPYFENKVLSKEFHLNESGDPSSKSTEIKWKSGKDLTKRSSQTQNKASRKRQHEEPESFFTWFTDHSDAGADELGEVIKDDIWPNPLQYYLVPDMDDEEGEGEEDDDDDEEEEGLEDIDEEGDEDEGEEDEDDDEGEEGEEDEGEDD
Protocol: (§8) FIG. 1A and 1B show determination of the binding site of PP2A to SET and vice versa. A) Overlapping dodecapeptides with two amino acid shift covering the whole PP2A protein were bound to a solid support. The membrane was incubated sequentially with SET protein, and anti-SET antibody, followed by a peroxidase-labeled secondary antibody. […] The sequence corresponding to the identified spots is shown. B) Overlapping dodecapeptides with two amino acid shift covering the whole human SET protein were bound to a solid support. The membrane was incubated sequentially with PP2A protein, and anti-PP2A antibody, followed by a peroxidase-labeled secondary antibody. […] The sequence corresponding to the identified spots is shown.
(§9) Overlapping peptides covering the whole human PP2Ac or SET sequence were prepared by automated spot synthesis (Abimed, Langerfeld, Germany) onto an amino-derived cellulose membrane, as described (Frank and Overwin, 1996; Gausepohl et al. 1992). The membranes were blocked, incubated with purified recombinant SET or PP2A protein, after several washing steps, incubated with anti-SET2 (Bethyl Laboratories) or anti-PP2Ac antibody (Santa Cruz), and followed by PO-conjugated secondary antibody. Protein interactions were visualized using ECL system (Pierce). […]

[8] = target: PP2Ac protein (Homo sapiens, UniProt P67775); assay: Binding assay on cellulose-bound overlapping SET peptides incubated with PP2A protein; settings: six overlapping dodecapeptides, anti-PP2Ac antibody, ECL detection
Chain of PP2Ac protein (P67775 whole entry): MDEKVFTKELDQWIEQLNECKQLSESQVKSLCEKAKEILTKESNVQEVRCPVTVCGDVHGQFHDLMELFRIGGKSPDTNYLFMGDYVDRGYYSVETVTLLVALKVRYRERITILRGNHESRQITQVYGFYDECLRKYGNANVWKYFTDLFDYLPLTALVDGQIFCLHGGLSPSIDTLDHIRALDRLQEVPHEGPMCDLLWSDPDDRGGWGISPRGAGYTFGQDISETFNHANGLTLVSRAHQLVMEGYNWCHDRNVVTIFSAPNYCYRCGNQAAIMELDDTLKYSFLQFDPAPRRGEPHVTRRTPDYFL
Protocol: as §8, §9

## VKKKKIKAEIKI-ETVTLLVALKVRYRERIT (VKKKKIKAEIKIETVTLLVALKVRYRERIT) [Mut3DPT-PP2Ac]
[1]
  apoptosis (Annexin V-FITC staining, flow cytometry): has apoptotic effect
[2]
  apoptosis (Annexin V-FITC staining, flow cytometry): has an apoptotic effect
[3]
  apoptosis (Annexin V-FITC staining, flow cytometry): has an apoptotic effect
[4]
  apoptosis (Annexin V-FITC staining, flow cytometry): has apoptotic effect
[5]
  apoptosis (Annexin V-FITC staining, flow cytometry): has an apoptotic effect

## VKKKKIKAEIKI-PSSKSTEIKWKSGKDLTKRSSQ (VKKKKIKAEIKIPSSKSTEIKWKSGKDLTKRSSQ) [Mut3DPT-SET]
[6]
  apoptosis (Annexin V-FITC staining, flow cytometry): slight apoptosis increase

## ETVTLLVALKVRYRERIT (Synthetic peptide PP2Ac) [SEQ ID NO: 1]
[7]
  binding of SET protein to cellulose-bound PP2Ac sequence: bound by SET protein

## PSSKSTEIKWKSGKDLTKRSSQ (Synthetic peptide SET) [SEQ ID NO: 2]
[8]
  binding of PP2Ac protein to cellulose-bound SET sequence: bound by PP2Ac protein
